Results: patent publication US20260125359A1, “HETEROARYL COMPOUNDS AS MULTI-TARGET PROTEIN KINASE INHIBITORS” (FUJIAN HAIXI PHARMACEUTICALS CO., LTD., priority 2023, published 2026)
pIC50: −log10 of the molar value.

System: M-NFS-60 cells
Assay: M-NFS-60 cell in vitro assay (CCK, 48 h, M-CSF factor medium)
Format: cell-based
Conditions: M-NFS-60 cells; read-out: M-NFS-60cellassay IC50
Summary of the method: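 Mouse M-NFS-60 cells (2000/well) in RPMI-1640 with 10% serum and M-CSF (25 ng/ml) were pre-incubated 4 h, then exposed to DMSO-diluted compound gradients for 48 h at 5% CO2. Viability read by CCK, 2 h, OD 450 nm; IC50 from curve fitting.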

Compound	pIC50
CC(C)c1csc(Nc2cccc3c2CC[C@@H]3Nc2cncc(-c3cnn(C)c3)n2)n1 [Compound 35, (S)—N^4-(4-isopropylthiazol-2-yl)-N^1-(6-(1-methyl-1H-pyrazol-4-yl)pyrazin-2-yl)-2,3-dihydro-1H-indene-1,4-diamine]	6.70 to 7.30
Cn1cc(-c2cncc(O[C@H]3CCc4c(C(=O)Nc5cncc(F)c5)cccc43)c2)cn1 [Compound 19t]	6.70 to 7.30
Cn1cc2ncc(N[C@H]3CCc4c(Nc5cc(C6(C)CCC6)on5)cccc43)cc2n1 [Compound 91k]	> 7.30
Cn1cc(-c2cncc(N[C@H]3CCc4c(C(=O)Nc5cccc(C(F)(F)F)c5)cccc43)c2)cn1 [Compound 14ax]	> 7.30
Cn1cc(-c2cncc(N[C@H]3CCc4c(C(=O)Nc5ccc(Cl)c(F)c5)cccc43)c2)cn1 [Compound 14ao]	> 7.30
Cn1cc(-c2cc(N[C@H]3CCc4c(C(=O)Nc5cccc(C6CC6)c5)cccc43)ccn2)cn1 [Compound 57, (S)—N-(3-cyclopropylphenyl)-1-((2-(1-methyl-1H-pyrazol-4-yl)pyridin-4-yl)amino)-2,3-dihydro-1H-indene-4-carboxamide]	< 6.30
Cn1ccc2ncc(N[C@H]3CCc4c(C(=O)Nc5cccc(C6CC6)c5)cccc43)cc21 [Compound 74e]	> 7.30
Cn1cc(-c2cncc(N[C@H]3CCc4c(NCc5cccc(F)c5)cccc43)n2)cn1 [Compound 60d]	< 6.30
COc1c(Cl)cccc1NC(=O)c1cccc2c1CC[C@@H]2Oc1cnc2cn(C)nc2c1 [Compound 76be]	6.70 to 7.30
O=C(Nc1cccc2c1CC[C@@H]2Nc1cncc(Br)c1)c1cccc(C2CC2)c1 [Compound 11, (S)—N-(1-((5-bromopyridin-3-yl)amino)-2,3-dihydro-1H-inden-4-yl)-3-cyclopropylbenzamide]	6.70 to 7.30
Cn1cc(-c2cncc(N[C@H]3CCc4c(CNc5cccc(C6CC6)c5)cccc43)c2)cn1 [Compound 59b]	6.30 to 6.70
Cn1ncc2ncc(N[C@H]3CCc4c(Nc5noc(C(C)(C)C)n5)cccc43)cc21 [Compound 93a]	> 7.30
Cn1cc2ncc(N[C@H]3CCc4c(Nc5noc(C6(C)CC6)n5)cccc43)cc2n1 [Compound 93d]	> 7.30
CN(c1cncc(-c2cnn(C)c2)c1)[C@H]1CCc2c(NC(=O)c3ccc(C(F)(F)F)cc3)cccc21 [Compound 23, (S)—N-(1-(methyl (5-(1-methyl-1H-pyrazol-4-yl)pyridin-3-yl)amino)-2,3-dihydro-1H-inden-4-yl)-4-(trifluoromethyl)benzamide]	< 6.30
CN1CCC(NC(=O)c2cccc3c2CC[C@@H]3Nc2cncc(-c3cnn(C)c3)n2)CC1 [Compound 27h]	< 6.30
Cn1cc(-c2cncc(N[C@H]3CCc4c(Nc5cc(C(C)(C)C(F)(F)F)on5)cccc43)c2)cn1 [Compound 42p]	> 7.30
COc1cccc(NC(=O)c2cccc3c2CC[C@@H]3N(C)c2cnc3cn(C)nc3c2)c1F [Compound 80m]	> 7.30
Cc1cccc(C(=O)Nc2cccc3c2CC[C@@H]3Nc2cncc(-c3cnn(C)c3)c2)c1 [Compound 12, (S)-3-methyl-N-(1-((5-(1-methyl-1H-pyrazol-4-yl)pyridin-3-yl)amino)-2,3-dihydro-1H-inden-4-yl)benzamide]	> 7.30
Cn1cc2ncc(N[C@H]3CCc4c(Nc5noc(C(C)(C)CF)n5)cccc43)cc2n1 [Compound 93o]	> 7.30
COc1ccc(NCc2cccc3c2CC[C@@H]3Nc2cncc(-c3cnn(C)c3)c2)cc1 [Compound 59a]	6.30 to 6.70
Cn1cc(-c2cnc(N)c(O[C@H]3CCc4c(Nc5cc(C(C)(C)C)on5)cccc43)c2)cn1 [Compound 67, (S)—N-(1-((2-amino-5-(1-methyl-1H-pyrazol-4-yl)pyridin-3-yl)oxy)-2,3-dihydro-1H-inden-4-yl)-5-(tert-butyl) isoxazol-3-amine]	> 7.30

Compound	pIC50
CC(C)NC(=O)c1cccc2c1CC[C@@H]2Nc1cncc(-c2cnn(C)c2)n1 [Compound 27e]	6.70 to 7.30
Cn1cc(-c2cncc(N[C@H]3CCc4c(NC(=O)c5cccc(C(F)(F)F)c5)ccc(F)c43)c2)cn1 [Compound 46d]	> 7.30
CN1CCN(Cc2ccc(C(=O)Nc3cccc4c3CC[C@@H]4Nc3cncc(-c4cnn(C)c4)n3)cc2)CC1 [Compound 25f]	6.70 to 7.30
CC(C)c1cc(Nc2cccc3c2CC[C@@H]3Nc2cnc3cnn(C)c3c2)no1 [Compound 91e]	> 7.30
Cn1cc(-c2cncc(N[C@H]3CCc4c(CNC5CCCCC5)cccc43)n2)cn1 [Compound 59f]	< 6.30
CN(c1cnc2cnn(C)c2c1)[C@H]1CCc2c(Nc3cc(C(C)(C)C)on3)cccc21 [Compound 94, (S)—N^4-(5-(tert-butyl)isoxazol-3-yl)-N^1-methyl-N^1-(1-methyl-1H-pyrazolo[4,3-b]pyridin-6-yl)-2,3-dihydro-1H-indene-1,4-diamine]	6.30 to 6.70
Cc1cccc(C(=O)Nc2cc(F)cc3c2CCC3Nc2cncc(-c3cnn(C)c3)c2)c1 (stereo not drawn) [Compound 44a]	6.70 to 7.30
Cc1cccc(NCc2cccc3c2CC[C@@H]3Nc2cnc3cn(C)nc3c2)c1 [Compound 96b]	6.70 to 7.30
COc1cc(NC(=O)c2cccc3c2CC[C@@H]3N(C)c2cnc3cn(C)nc3c2)ccc1F [Compound 80v]	> 7.30
Cn1cc(-c2cncc(N[C@H]3CCc4c(NC(c5cccc(Cl)c5)C(F)(F)F)cccc43)n2)cn1 (stereo partly drawn) [Compound 61, (1S)—N^4-(1-(3-chlorophenyl)-2,2,2-trifluoroethyl)-N1-(6-(1-methyl-1H-pyrazol-4-yl)pyrazin-2-yl)-2,3-dihydro-1H-indene-1,4-diamine]	< 6.30
Cn1cc2ncc(N[C@H]3CCc4c(Nc5noc(C6CCCC6)n5)cccc43)cc2n1 [Compound 93k]	> 7.30
Cn1cc(-c2cncc(N[C@H]3CCc4c(Nc5cc(-c6ccccc6)on5)cccc43)c2)cn1 [Compound 42r]	6.70 to 7.30
Cn1cc(-c2cncc(N[C@H]3CCc4c(C(=O)Nc5nn(C)c6ccccc56)cccc43)c2)cn1 [Compound 14ag]	> 7.30
Cn1cc(-c2cncc(N[C@H]3CCc4c(C(=O)NN5CC6CCCC6C5)cccc43)n2)cn1 (stereo partly drawn) [Compound 27i]	> 7.30
Cc1cccc(C(=O)Nc2cccc3c2CC[C@@H]3Nc2cncc(-c3cnn(C)c3)n2)c1 [Compound 25a]	> 7.30
Cn1cc2ncc(N[C@H]3CCc4c(Nc5noc(C6(C)CCC6)n5)cccc43)cc2n1 [Compound 93n]	> 7.30
CC(C)(C)c1cc(Nc2cccc3c2CC[C@@H]3Nc2cncc(Cl)c2)no1 [Compound 42a]	6.70 to 7.30
CN(c1cnc2cnn(C)c2c1)[C@H]1CCc2c(C(=O)Nc3ccc4c(c3)OC(F)(F)O4)cccc21 [Compound 80i]	6.70 to 7.30
Cn1cc(-c2cncc(N[C@H]3CCc4c(NC(=O)N5CCC(C)(C)C5=O)cccc43)n2)cn1 [Compound 64, (S)-3,3-dimethyl-N-(1-((6-(1-methyl-1H-pyrazol-4-yl)pyrazin-2-yl)amino)-2,3-dihydro-1H-inden-4-yl)-2-oxopyrrolidine-1-carboxamide]	6.30 to 6.70
Cn1cc(-c2cncc(N[C@H]3CCc4c(Nc5nnc(C(C)(C)C)o5)cccc43)c2)cn1 [Compound 42l]	< 6.30
Cc1cccc(NC(=O)c2cccc3c2CC[C@@H]3Oc2cnc3cnn(C)c3c2)c1F [Compound 75, (S)—N-(2-fluoro-3-methylphenyl)-1-((1-methyl-1H-pyrazolo[4,3-b]pyridin-6-yl)oxy)-2,3-dihydro-1H-indene-4-carboxamide]	> 7.30
